Test results: ChEMBL document CHEMBL2203252, “Brominated aromatic furanones and related esters from the ascidian Synoicum sp” (J Nat Prod, 2012)
Converted amounts (≈) assume the structure as drawn.

What was measured:
[1] = Cytotoxicity against human A549 cells after 48 hrs by MTT assay; type: cell-based; conditions: read-out: LC50
Kocuria rhizophila = assay: Antimicrobial activity against Kocuria rhizophila NBRC 12708 after 24 hrs; type: functional; conditions: NBRC 12708, 24 h
Bacillus spizizenii = assay: Antimicrobial activity against Bacillus subtilis ATCC 6633 after 24 hrs; type: functional; conditions: ATCC 6633, 24 h
Proteus hauseri = assay: Antimicrobial activity against Proteus hauseri NBRC 3851 after 24 hrs; type: functional; conditions: NBRC 3851, 24 h
Staphylococcus aureus = assay: Antimicrobial activity against Staphylococcus aureus ATCC 6538p after 24 hrs; type: functional
[2] = Inhibition of Na+/K+-ATPase by fluorometric method
[3] = Cytotoxicity against human K562 cells after 48 hrs by MTT assay; type: cell-based; conditions: read-out: LC50
Escherichia coli = assay: Antimicrobial activity against Escherichia coli ATCC 35270 after 24 hrs; type: functional; conditions: ATCC 35270, 24 h
Salmonella enterica = assay: Antimicrobial activity against Salmonella enterica ATCC 14028 after 24 hrs; type: functional; conditions: ATCC 14028, 24 h
[4] = Inhibition of SortaseA
Isocitrate lyase = Isocitrate lyase (Candida albicans, UniProt Q9P8Q7); assay: Inhibition of Candida albicans ATCC 10231 isocitrate lyase by spectrophotometric analysis
Isocitrate lyase, sequence (Q9P8Q7 whole entry): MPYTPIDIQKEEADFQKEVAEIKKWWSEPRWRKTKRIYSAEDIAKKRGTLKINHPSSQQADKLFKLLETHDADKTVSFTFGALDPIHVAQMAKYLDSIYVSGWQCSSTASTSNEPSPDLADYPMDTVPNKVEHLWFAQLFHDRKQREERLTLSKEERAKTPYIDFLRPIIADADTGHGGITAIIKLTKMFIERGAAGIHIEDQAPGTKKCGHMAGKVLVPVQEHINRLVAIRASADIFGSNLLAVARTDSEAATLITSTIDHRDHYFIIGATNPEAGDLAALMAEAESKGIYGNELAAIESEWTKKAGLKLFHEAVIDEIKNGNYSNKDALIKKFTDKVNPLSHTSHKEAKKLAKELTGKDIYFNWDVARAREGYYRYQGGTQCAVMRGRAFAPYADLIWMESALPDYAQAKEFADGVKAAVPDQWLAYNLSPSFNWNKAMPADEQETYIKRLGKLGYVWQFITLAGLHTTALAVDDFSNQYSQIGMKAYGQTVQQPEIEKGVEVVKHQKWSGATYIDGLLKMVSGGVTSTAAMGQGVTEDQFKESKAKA

COc1ccc(C=C2OC(=O)C([C@@H](O)c3cc(Br)c(OC)c(Br)c3)=C2c2cc(Br)c(O)c(Br)c2)cc1
CC50 at 48 h [1]: 38.5 µM | MIC (Kocuria rhizophila): 3.1 µg/mL (≈ 4.16 µM) | MIC (Bacillus spizizenii): 1.6 µg/mL (≈ 2.14 µM) | MIC (Proteus hauseri): 3.1 µg/mL (≈ 4.16 µM) | MIC (Staphylococcus aureus): 6.3 µg/mL (≈ 8.44 µM) | IC50 [2]: 13.5 µM | CC50 at 48 h [3]: 50.8 µM | MIC (Escherichia coli): > 100 µg/mL | MIC (Salmonella enterica): 3.1 µg/mL (≈ 4.16 µM) | IC50 [4]: > 120 µM | IC50 (Isocitrate lyase): > 100 µM

COC(=O)C(C(=O)c1cc(Br)c(O)c(Br)c1)=C(C(=O)OC)c1cc(Br)c(O)c(Br)c1
CC50 at 48 h [1]: 19.2 µM | MIC (Kocuria rhizophila): 100 µg/mL (≈ 149 µM) | MIC (Bacillus spizizenii): 50 µg/mL (≈ 74.4 µM) | MIC (Proteus hauseri): 100 µg/mL (≈ 149 µM) | MIC (Staphylococcus aureus): 100 µg/mL (≈ 149 µM) | IC50 [2]: 28 µM | CC50 at 48 h [3]: 53.7 µM | MIC (Escherichia coli): > 100 µg/mL | MIC (Salmonella enterica): 50 µg/mL (≈ 74.4 µM) | IC50 [4]: > 120 µM | IC50 (Isocitrate lyase): 26.3 µM

COC(=O)C(C(=O)c1cc(Br)c(O)c(Br)c1)=C(C(=O)OC)c1ccc(O)c(Br)c1
CC50 at 48 h [1]: > 100 µM | MIC (Kocuria rhizophila): > 100 µg/mL | MIC (Bacillus spizizenii): > 100 µg/mL | MIC (Proteus hauseri): > 100 µg/mL | MIC (Staphylococcus aureus): > 100 µg/mL | IC50 [2]: 145 µM | CC50 at 48 h [3]: 49.7 µM | MIC (Escherichia coli): > 100 µg/mL | MIC (Salmonella enterica): > 100 µg/mL | IC50 [4]: > 120 µM | IC50 (Isocitrate lyase): 47.6 µM

O=C(O)CC[N+](=O)[O-]
IC50 (Isocitrate lyase): 53.9 µM

CC1(C)S[C@@H]2[C@H](NC(=O)[C@H](N)c3ccccc3)C(=O)N2[C@H]1C(=O)O [AMPICILLIN]
MIC (Kocuria rhizophila): 0.4 µg/mL (≈ 1.14 µM) | MIC (Bacillus spizizenii): 0.4 µg/mL (≈ 1.14 µM) | MIC (Proteus hauseri): 1.6 µg/mL (≈ 4.58 µM) | MIC (Staphylococcus aureus): 0.4 µg/mL (≈ 1.14 µM) | MIC (Escherichia coli): 6.3 µg/mL (≈ 18 µM) | MIC (Salmonella enterica): 0.4 µg/mL (≈ 1.14 µM)

O=C1O/C(=C\c2cc(Br)c(O)c(Br)c2)C(c2ccc(O)c(Br)c2)=C1C(=O)c1cc(Br)c(O)c(Br)c1 [CADIOLIDE E]
CC50 at 48 h [1]: 40.4 µM | MIC (Kocuria rhizophila): 0.8 µg/mL (≈ 1.01 µM) | MIC (Bacillus spizizenii): 1.6 µg/mL (≈ 2.01 µM) | MIC (Proteus hauseri): 3.1 µg/mL (≈ 3.9 µM) | MIC (Staphylococcus aureus): 3.1 µg/mL (≈ 3.9 µM) | IC50 [2]: 2.5 µM | CC50 at 48 h [3]: > 100 µM | MIC (Escherichia coli): > 100 µg/mL | MIC (Salmonella enterica): 1.6 µg/mL (≈ 2.01 µM) | IC50 [4]: 78.8 µM | IC50 (Isocitrate lyase): 8.9 µM

COc1c(Br)cc([C@H](O)C2=C(c3ccc(O)c(Br)c3)/C(=C/c3ccc(O)c(Br)c3)OC2=O)cc1Br [CADIOLIDE G]
CC50 at 48 h [1]: > 100 µM | MIC (Kocuria rhizophila): 3.1 µg/mL (≈ 4.23 µM) | MIC (Bacillus spizizenii): 12.5 µg/mL (≈ 17.1 µM) | MIC (Proteus hauseri): 3.1 µg/mL (≈ 4.23 µM) | MIC (Staphylococcus aureus): 3.1 µg/mL (≈ 4.23 µM) | IC50 [2]: 10.3 µM | CC50 at 48 h [3]: > 100 µM | MIC (Escherichia coli): > 100 µg/mL | MIC (Salmonella enterica): 0.8 µg/mL (≈ 1.09 µM) | IC50 [4]: > 120 µM | IC50 (Isocitrate lyase): 49.8 µM

COC(=O)C1=C(c2cc(Br)c(O)c(Br)c2)C(=O)OC1=C(c1cc(Br)c(O)c(Br)c1)c1cc(Br)c(O)c(Br)c1 [CADIOLIDE I]
CC50 at 48 h [1]: 52.7 µM | MIC (Kocuria rhizophila): 0.8 µg/mL (≈ 0.885 µM) | MIC (Bacillus spizizenii): 0.8 µg/mL (≈ 0.885 µM) | MIC (Proteus hauseri): 6.3 µg/mL (≈ 6.97 µM) | MIC (Staphylococcus aureus): 0.8 µg/mL (≈ 0.885 µM) | IC50 [2]: 5 µM | CC50 at 48 h [3]: 51.2 µM | MIC (Escherichia coli): > 100 µg/mL | MIC (Salmonella enterica): 1.6 µg/mL (≈ 1.77 µM) | IC50 [4]: > 120 µM | IC50 (Isocitrate lyase): 10.8 µM

COc1cccc2c1C(=O)c1c(O)c3c(c(O)c1C2=O)C[C@@](O)(C(=O)CO)C[C@@H]3O[C@H]1C[C@H](N)[C@H](O)[C@H](C)O1 [DOXORUBICIN]
CC50 at 48 h [1]: 1.7 µM | CC50 at 48 h [3]: 4.7 µM

C[C@@H]1O[C@@H](O[C@H]2C[C@@H](O)[C@]3(CO)[C@H]4[C@H](O)C[C@]5(C)[C@@H](C6=CC(=O)OC6)CC[C@]5(O)[C@@H]4CC[C@]3(O)C2)[C@H](O)[C@H](O)[C@H]1O [OUABAIN]
IC50 [2]: 5.8 µM

Para-Hydroxymercuribenzoic acid
IC50 [4]: 106 µM
